Patent publication US20110105462A1, “MODULATORS OF DOPAMINE NEUROTRANSMISSION” (NSAB, FILIAL AF NEUROSEARCH SWEDEN AB, SVERIGE, priority 2008, published 2011)
Counter-ions that a name gives are not always drawn.

Assays:
[1] = test system: DOPAC (3,4-dihydroxyphenylacetic acid) in the rat striatum; assay: Increase of DOPAC in the rat striatum after systemic administration (in vivo neurochemistry); conditions: sc, systemic administration (s.c.), curve fitting, 95% range printed in the row below each value, read-out: ED50 DOPAC* (estimated ED50 on increase of DOPAC in the rat striatum)
Source text: After the behavioural activity sessions, the rats are decapitated and their brains rapidly taken out and put on an ice-cold petri-dish. The limbic forebrain, the striatum, the frontal cortex and the remaining hemispheral parts of each rat are dissected and frozen. Each brain part is subsequently analyzed with respect to its content of monoamines and their metabolites.
The monoamine transmitter substances (NA (noradrenaline), DA (dopamine), 5-HT (serotonin)) as well as their amine (NM (normethanephrine), 3-MT (3-methoxytyramine)) and acid (DOPAC (3,4-dihydroxyphenylacetic acid), 5-HIAA (5-hydroxyindoleacetic acid), HVA (homovanillic acid)) metabolites are quantified in brain tissue homogenates by HPLC separations and electrochemical detection
The analytical method is based on two chromatographic separations dedicated for amines or acids. Two chromatographic systems share a common auto injector with a 10-port valve and two sample loops for simultaneous injection on the two systems. Both systems are equipped with a reverse phase column (Luna C18(2), dp 3 μm, 50*2 mm i.d., Phenomenex) and electrochemical detection is accomplished at two potentials on glassy carbon electrodes (MF-1000, Bioanalytical Systems, Inc.). The column effluent is passed via a T-connection to the detection cell or to a waste outlet. This is accomplished by two solenoid valves, which block either the waste or detector outlet. By preventing the chromatographic front from reaching the detector, better detection conditions are achieved. The aqueous mobile phase (0.4 ml/min) for the acid system contains citric acid 14 mM, sodium citrate 10 mM, MeOH 15% (v/v) and EDTA 0.1 mM. Detection potentials relative to Ag/AgCl reference are 0.45 and 0.60V. The aqueous ion pairing mobile phase (0.5 ml/min) for the amine system contains citric acid 5 mM, sodium citrate 10 mM, MeOH 9% (v/v), MeCN 10.5% v/v), decane sulfonic acid 0.45 mM, and EDTA 0.1 mM. Detection potentials relative to Ag/AgCl reference are 0.45 and 0.65V.
ED50 values for the increase of DOPAC in striatum are calculated by curve fitting.

drug-naive rats = assay: Locomotor activity in drug-naive rats (in vivo behaviour); design: species or system rat; conditions: recorded for 60 minutes immediately after drug administration
Source text: Photobeam sensors are spaced 2.5 cm apart.

Compound | melting point [°C] | ED50 [1] [µmol/kg] | Locomotor activity (counts/60 min ± SEM) (drug-naive rats; 3.7 μmol/kg) [counts/60 min] | Locomotor activity (counts/60 min ± SEM) (drug-naive rats; 11 μmol/kg) [counts/60 min] | Locomotor activity (counts/60 min ± SEM) (drug-naive rats; 33 μmol/kg) [counts/60 min]
CCCNCC1COc2ccc(OS(=O)(=O)C(F)(F)F)cc2O1 (centres unmarked) (as salt: fumaric acid salt) [Example 6, 3-[(PROPYLAMINO)METHYL]-2,3-DIHYDRO-1,4-BENZODIOXIN-6-YL TRIFLUOROMETHANESULFONATE] | 163 | – | – | – | –
CCCNCC1COc2cc(F)c(F)cc2O1 (centres unmarked) (as salt: hydrobromic acid salt) [Example 2, N-[(6,7-DIFLUORO-2,3-DIHYDRO-1,4-BENZODIOXIN-2-YL)METHYL]PROPAN-1-AMINE] | 262 | – | – | – | –
CCCNC[C@H]1COc2ccc(Br)cc2O1 (as salt: hydrochloric acid salt) [Example 1, N-{[(2S)-7-BROMO-2,3-DIHYDRO-1,4-BENZODIOXIN-2-YL]METHYL}PROPAN-1-AMINE] | 194 | – | – | – | –
CCCNCC1COc2ccc(F)cc2O1 (centres unmarked) (as salt: hydrochloric acid salt) [Example 3, N-[(7-FLUORO-2,3-DIHYDRO-1,4-BENZODIOXIN-2-YL)METHYL]PROPAN-1-AMINE] | 187 | – | – | – | –
CCCNCC1COc2ccc(Cl)cc2O1 (centres unmarked) (as salt: hydrochloric acid salt) [Example 4, N-[(7-CHLORO-2,3-DIHYDRO-1,4-BENZODIOXIN-2-YL)METHYL]PROPAN-1-AMINE] | 191 | – | – | – | –
CCCNCC1COc2ccc(F)c(F)c2O1 (centres unmarked) (as salt: hydrochloric acid salt) [Example 7, N-[(7,8-DIFLUORO-2,3-DIHYDRO-1,4-BENZODIOXIN-2-YL)METHYL]PROPAN-1-AMINE] | 184 | – | – | – | –
CCCNCC1COc2c(F)cc(F)cc2O1 (centres unmarked) (as salt: hydrochloric acid salt) [Example 8, N-[(5,7-DIFLUORO-2,3-DIHYDRO-1,4-BENZODIOXIN-2-YL)METHYL]PROPAN-1-AMINE] | 157 | – | – | – | –
Fc1ccc2c(c1)O[C@@H](CN1CCCC1)CO2 (as salt: hydrochloric acid salt) [Example 9, 1-{[(2S)-7-FLUORO-2,3-DIHYDRO-1,4-BENZODIOXIN-2-YL]METHYL}PYRROLIDINE] | 215 | – | – | – | –
CCCNC[C@H]1COc2ccc(C(F)(F)F)cc2O1 (as salt: hydrochloric acid salt) [Example 58, N-{[(2S)-7-(TRIFLUOROMETHYL)-2,3-DIHYDRO-1,4-BENZODIOXIN-2-YL]METHYL}PROPAN-1-AMINE] | 166 | – | – | – | –
CCCNC[C@H]1COc2ccc(Br)cc2O1 [Example 1, N-{[(2S)-7-BROMO-2,3-DIHYDRO-1,4-BENZODIOXIN-2-YL]METHYL}PROPAN-1-AMINE] | – | 3.4 | 6714 ± 601 | 5111 ± 620 | 1326 ± 131
CCCNCC1COc2ccc(OS(=O)(=O)C(F)(F)F)cc2O1 (centres unmarked) [Example 6, 3-[(PROPYLAMINO)METHYL]-2,3-DIHYDRO-1,4-BENZODIOXIN-6-YL TRIFLUOROMETHANESULFONATE] | – | 12 | 9495 ± 2036 | 10705 ± 1903 | 8064 ± 707
CCCNCC1COc2ccc(F)c(F)c2O1 (centres unmarked) [Example 7, N-[(7,8-DIFLUORO-2,3-DIHYDRO-1,4-BENZODIOXIN-2-YL)METHYL]PROPAN-1-AMINE] | – | 3.1 | 7932 ± 2067 | 6884 ± 400 | 4408 ± 212
CCCNCC1COc2c(F)cc(F)cc2O1 (centres unmarked) [Example 8, N-[(5,7-DIFLUORO-2,3-DIHYDRO-1,4-BENZODIOXIN-2-YL)METHYL]PROPAN-1-AMINE] | – | 14 | 9266 ± 2706 | 8320 ± 2405 | 5457 ± 536
Fc1ccc2c(c1)O[C@@H](CN1CCCC1)CO2 [Example 9, 1-{[(2S)-7-FLUORO-2,3-DIHYDRO-1,4-BENZODIOXIN-2-YL]METHYL}PYRROLIDINE] | – | – | 5419 ± 1414 | 2769 ± 647 | 1944 ± 482
CCCNC[C@H]1COc2ccc(C(F)(F)F)cc2O1 [Example 58, N-{[(2S)-7-(TRIFLUOROMETHYL)-2,3-DIHYDRO-1,4-BENZODIOXIN-2-YL]METHYL}PROPAN-1-AMINE] | – | < 3.7 | – | – | –
